Assay results: patent US8217000B2, “Method for elevating prolactin in mammals” (Cara Therapeutics, Inc., priority 2006, dated 2012)
Structures can show the parent of a compound that is named as a salt. Non-standard residues stand in square brackets, D forms with d. Residues, ends and D or L forms follow the SMILES beside them. *: point of attachment. NH(4-picolyl) = c1cc(CN*)ccn1; dNle = CCCC[C@@H](N)C(=O)O

Assay: Plasma pharmacokinetics of CR665 after single IV infusion in human subjects
Details: for half-life / clearance / Vd / AUC(0-t) / AUC(0-inf) / Cmax / MRT / Tmax: human, plasma; for clearance: CL; for AUC(0-t): AUC0-t; for AUC(0-inf): AUC0-∞; for MRT: MRTint; for Tmax: median
Method: This clinical study was conducted as a double blind, placebo controlled, ascending single intravenous (IV) dose, sequential group study. This study was double blind and placebo controlled in order to avoid bias in the collection and evaluation of data during its conduct. […] In each group, subjects received CR665 or placebo. Doses were administered as a single constant rate IV infusion over 1 hour (part A) or 5 minutes (part B) on the morning of Day 1. Doses were administered in an escalating manner following satisfactory review of the safety data and pharmacokinetic data from the lower dose levels. There was a minimum of 6 days between dose escalations to allow sufficient time for an adequate safety review.
Plasma and urine samples for the analysis of CR665 and N oxide metabolite were prepared by solid phase extraction. The centrifuged eluates were quantified by liquid chromatography with tandem mass spectrometric detection (LC MS/MS). The lower limit of quantification was 1 ng/mL.
For pharmacokinetic assessments, blood samples (1×3 mL) were taken from the contralateral forearm vein(s) at the following times: Pre-dose, 15 minutes, 30 minutes, 45 minutes, 1 hour (immediately prior to the end of infusion), 1 hour 5 minutes, 1 hour 10 minutes, 1 hour 15 minutes, 1.5, 2, 2.5, 3, 4, 6, 8, 12, 16, 24, 36 and 48 hours after the start of the infusion). An indwelling cannula (Venflon®; BOC Ohmeda AB, Sweden) was used for all blood collection pre-dose and up to at least 12 hours after the start of the infusion. Otherwise, samples were collected using venipuncture. Blood samples were collected into pre-chilled 3 mL K3EDTA Vacutainer™ tubes (Becton Dickinson UK, Ltd., Oxford) and, after mixing, were placed in a cool box containing crushed ice/water. The samples were centrifuged, within 30 minutes of collection, at 1500 g for 10 minutes at approximately 4° C. For each sample, the separated plasma was transferred into two 5 mL suitably labeled polypropylene tubes, and stored immediately at approximately −20° C. Plasma samples were analyzed for CR665 using liquid chromatography with tandem mass spectrometric detection.
The pharmacokinetic analysis was conducted using WinNonlin Enterprise Version 4.0.1.
Pharmacokinetic parameters were determined from the plasma and urine, concentrations of CR665 and the N-oxide metabolite using non compartmental procedures.
Dose and body weight normalized values (norm) were determined for AUC0-t, AUC0-∞, Cinf and Cmax. Body weight normalized values [norm] were determined for Vz, Vss, CL and CLR.
The pharmacokinetic analysis was conducted using model independent methods as implemented in WinNonlin software, based on plasma concentrations of CR665 from those subjects who have received CR665 and have evaluable plasma concentration-time profiles.
The following plasma pharmacokinetic parameters were determined for CR665: • Cmax Maximum plasma concentration • tmax Time of maximum plasma concentration • t1/2z Terminal half-life=ln(2)/λz • AUC0-1 Area under the plasma concentration-time curve from time zero to time t (time of last quantifiable plasma concentration) • AUCinf Area under the plasma concentration-time curve from time zero to infinity calculated as [AUC0-t+(Clast/λz)] where Clast is the estimated concentration at the last quantifiable concentration curve. • λz Terminal-phase rate constant, also known as Kel • CL Total body clearance=Dose/AUCinf • Vz Volume of distribution based on terminal phase calculated as Vz/F=Dose/λz*AUCinf
Individual elapsed sampling times were used in the pharmacokinetic analysis. Cmax and tmax were obtained directly from the experimental observations. For the purpose of calculating AUC0-t, when two consecutive plasma concentrations below the lower limit of quantification (LLOQ) were encountered after tmax, all subsequent values were excluded from the analysis.

[1] = female, iv, 0.06 mg/kg, females, 5-minute IV infusion, geometric mean
[2] = female, iv, 0.24 mg/kg, females, 1-hour IV infusion, geometric mean
[3] = females, 0.24 mg/kg dose level as printed, Part B text
[4] = male, iv, 0.015 mg/kg, males, 1 hour IV infusion, geometric mean
[5] = male, iv, 0.03 mg/kg, males, 5-minute IV infusion, geometric mean
[6] = male, iv, 0.03 mg/kg, males, 1 hour IV infusion, geometric mean

CCCC[C@@H](NC(=O)[C@@H](Cc1ccccc1)NC(=O)[C@H](N)Cc1ccccc1)C(=O)N[C@H](CCCNC(=N)N)C(=O)NCc1ccncc1 [CR665, D-phenylalanyl-D-phenylalanyl-D-norleucyl-N-(4-pyridinylmethyl)-D-argininamide, acetate salt] (H-[dF][dF][dNle][dR]-{NH(4-picolyl)})
half-life (both, intravenous, 0.24 mg/kg, Mean terminal elimination half-life, male and female subjects, 1-hour infusion): 72 to 84 min | clearance (female, intravenous, 0.06 mg/kg, geometric least squares mean, females, 5-minute infusion): 544 mL/min | half-life (female, intravenous, 0.06 mg/kg, Mean terminal elimination half life, females, 5-minute infusion): ~48 min | Vd (female, intravenous, 0.06 mg/kg, Vss, geometric least squares mean, females, 5-minute infusion): 14.1 L | Vd (female, intravenous, 0.06 mg/kg, Vz, geometric least squares mean, females, 5-minute infusion): 45.7 L | half-life (female, intravenous, 0.06 mg/kg, t1/2, geometric least squares mean, females, 5-minute infusion): 56.8 min | clearance (female, intravenous, 0.24 mg/kg, geometric least squares mean, females, 1-hour infusion): 573 mL/min | half-life (female, intravenous, 0.24 mg/kg, Mean terminal elimination half-life, females, 1-hour infusion): 72 min | Vd (female, intravenous, 0.24 mg/kg, Vss, geometric least squares mean, females, 1-hour infusion): 17 L | Vd (female, intravenous, 0.24 mg/kg, Vz, geometric least squares mean, females, 1-hour infusion): 50.2 L | half-life (female, intravenous, 0.24 mg/kg, t1/2, geometric least squares mean, females, 1-hour infusion): 63 min | AUC(0-t) [1]: 120 ng·h/mL | AUC(0-inf) [1]: 122 ng·h/mL | clearance [1]: 544 mL/min | Cmax [1]: 520 ng/mL | MRT [1]: 25.1 min | Vd (female, iv, 0.06 mg/kg, Vss, females, 0.06 mg/kg, 5-minute IV infusion, geometric mean): 13.7 L | Vd (female, iv, 0.06 mg/kg, Vz, females, 5-minute IV infusion, geometric mean): 39.2 L | half-life (female, iv, 0.06 mg/kg, t1/2, females, 5-minute IV infusion, geometric mean): 50 min | Tmax (female, iv, 0.06 mg/kg, females, 5-minute IV infusion): 5 min | AUC(0-t) [2]: 440 ng·h/mL | AUC(0-inf) [2]: 442 ng·h/mL | clearance [2]: 557 mL/min | Cmax [2]: 384 ng/mL | MRT [2]: 30.9 min | Vd (female, iv, 0.24 mg/kg, Vss, females, 0.24 mg/kg, 1-hour IV infusion, geometric mean): 17.2 L | Vd (female, iv, 0.24 mg/kg, Vz, females, 1-hour IV infusion, geometric mean): 55.7 L | half-life (female, iv, 0.24 mg/kg, t1/2, females, 1-hour IV infusion, geometric mean): 69.6 min | Tmax (female, iv, 0.24 mg/kg, females, 1-hour IV infusion): 45 min | AUC0-t (norm), ratio of geometric least squares means 5-minute:1-hour (females): 1.04 | AUC0-∞ (norm), ratio of geometric least squares means 5-minute:1-hour (females): 1.05 | CL, ratio of geometric least squares means 5-minute:1-hour (females): 0.950 | Cmax (norm), ratio of geometric least squares means 5-minute:1-hour (females): 5.27 | Cmax, fold higher for the 5-minute compared to the 1-hour infusion (females): 5.3 fold | MRTint, ratio of geometric least squares means 5-minute:1-hour (females): 0.864 | Vss, ratio of geometric least squares means 5-minute:1-hour (females): 0.832 | Vz, ratio of geometric least squares means 5-minute:1-hour (females): 0.911 | t1/2, ratio of geometric least squares means 5-minute:1-hour (females): 0.901 | Between-subject variability (CV %) for AUC0-∞ [3]: 8.8% | Between-subject variability (CV %) for Cmax [3]: 18.8% | MRTint, geometric least squares mean (females, 1-hour infusion): 29.9 min | MRTint, geometric least squares mean (females, 5-minute infusion): 25.8 min | half-life (intravenous, Apparent elimination half life, individual subjects, males, 0.12 to 0.48 mg/kg, 1 hour infusion): 72 to 180 min | Vd (male, intravenous, Apparent volume of distribution at steady state (VSS), males, 0.12 to 0.48 mg/kg dose range): 19 to 23 L | clearance (male, intravenous, geometric least squares mean, males, 1-hour infusion, Parts A & B): 557 mL/min | clearance (male, intravenous, geometric least squares mean, males, 5-minute infusion, Parts A & B): 538 mL/min | half-life (male, intravenous, Mean apparent elimination half life, males, 0.015 to 0.06 mg/kg, 1 hour infusion): ~42 min | half-life (male, intravenous, Mean apparent elimination half life, males, 0.03 to 0.09 mg/kg, 5-minute infusion): 60 to 78 min | half-life (male, intravenous, Mean apparent elimination half life, males, 0.12 to 0.48 mg/kg, 1 hour infusion): 84 to 114 min | Vd (male, intravenous, Vss, geometric least squares mean, males, 1-hour infusion, Parts A & B): 20.1 L | Vd (male, intravenous, Vss, geometric least squares mean, males, 5-minute infusion, Parts A & B): 18.1 L | Vd (male, intravenous, Vz, geometric least squares mean, males, 1-hour infusion, Parts A & B): 59.1 L | Vd (male, intravenous, Vz, geometric least squares mean, males, 5-minute infusion, Parts A & B): 61 L | half-life (male, intravenous, t1/2, geometric least squares mean, males, 1-hour infusion, Parts A & B): 75 min | half-life (male, intravenous, t1/2, geometric least squares mean, males, 5-minute infusion, Parts A & B): 76.8 min | AUC(0-t) [4]: 30 ng·h/mL | AUC(0-inf) [4]: 31.4 ng·h/mL | clearance [4]: 560 mL/min | Cmax [4]: 27.8 ng/mL | MRT [4]: 30.7 min | Vd (male, iv, 0.015 mg/kg, Vss, males, 0.015 mg/kg, 1 hour IV infusion, geometric mean): 17.2 L | Vd (male, iv, 0.015 mg/kg, Vz, males, 1 hour IV infusion, geometric mean): 33.5 L | half-life (male, iv, 0.015 mg/kg, t1/2, males, 1 hour IV infusion, geometric mean): 41.5 min | Tmax (male, iv, 0.015 mg/kg, males, 1 hour IV infusion): 60 min | AUC(0-t) [5]: 65.9 ng·h/mL | AUC(0-t) [6]: 70 ng·h/mL | AUC(0-inf) [5]: 68.4 ng·h/mL | AUC(0-inf) [6]: 72.5 ng·h/mL | clearance [5]: 473 mL/min | clearance [6]: 538 mL/min | Cmax [5]: 233 ng/mL | Cmax [6]: 65.3 ng/mL | MRT [5]: 36.9 min | MRT [6]: 30.6 min | Vd (male, iv, 0.03 mg/kg, Vss, males, 0.03 mg/kg, 5-minute IV infusion, geometric mean): 17.4 L | Vd (male, iv, 0.03 mg/kg, Vss, males, 0.03 mg/kg, 1 hour IV infusion, geometric mean): 16.5 L | Vd (male, iv, 0.03 mg/kg, Vz, males, 5-minute IV infusion, geometric mean): 53.6 L | Vd (male, iv, 0.03 mg/kg, Vz, males, 1 hour IV infusion, geometric mean): 34.1 L | half-life (male, iv, 0.03 mg/kg, t1/2, males, 5-minute IV infusion, geometric mean): 78.6 min | half-life (male, iv, 0.03 mg/kg, t1/2, males, 1 hour IV infusion, geometric mean): 43.9 min | Tmax (male, iv, 0.03 mg/kg, males, 5-minute IV infusion): 5 min | Tmax (male, iv, 0.03 mg/kg, males, 1 hour IV infusion): 60 min | AUC(0-t) (male, iv, 0.06 mg/kg, males, 5-minute IV infusion, geometric mean): 139 ng·h/mL | AUC(0-t) (male, iv, 0.06 mg/kg, males, 1 hour IV infusion, geometric mean): 129 ng·h/mL
